This note sets out measurements from patent US10457707B2, “Substituted urea depsipeptide analogs as activators of the CLPP endopeptidase” (priority 2015, dated 2019).

Usually IC50 stands for the concentration needed to halve the response being measured. The term solubility denotes the dissolved amount per volume that the medium holds.

≈ marks a conversion by molar mass, not a printed value. *1 amine or outer side, *2 acyl side, *3 side chain or, on linkers, in order; H or OH if unused. Where a SMILES comes first, the peptide text is derived from it. Bridges are numbered along the chain shown (N, C = ends). [ ]: non-standard residue; d: D form. The star is where a group is joined. X15 = O=C([C@@H]1C[C@@H](OP(=O)(O)O)CN1[*:1])[*:2]; Phe(3,5-F2) = N[C@@H](Cc1cc(F)cc(F)c1)C(=O)O; Morpholine(3S-CO) = O=C(O)[C@@H]1COCCN1; Pro(4S-Me) = C[C@@H]1CN[C@H](C(=O)O)C1; Pro(4R-Me) = C[C@H]1CN[C@H](C(=O)O)C1; NH(3,4-Me2-phenyl) = Cc1ccc(N*)cc1C; NH(4-Me-phenyl) = Cc1ccc(N*)cc1; aThr = C[C@H](O)[C@H](N)C(=O)O; Pip = O=C(O)[C@@H]1CCCCN1; NMeA = CN[C@@H](C)C(=O)O; CO = O=C([*:1])[*:2]

The subject of series [1] is Staphylococcus aureus, ATCC 29213. The series is described as follows: Minimal inhibitory concentration assay (microbroth dilution). Conditions: ATCC29213, read-out: Minimal Inhibitory Concentrations S. aureus ATCC 29213. In kind it is cell-based. The gist of the method:
(§1)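 Paired MICs against USA 300 and its ClpP-inactivated counterpart test whether killing runs through ClpP. All strains: two-fold broth dilutions from 200 μM final, ~10^5 cfu/mL inoculum, overnight at 37 °C in air, lowest growth-free concentration read by eye.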

Series [2] relates to Streptococcus pneumoniae, DAW27. Described as above. It counts as cell-based. Particulars: DAW27, read-out: Minimal Inhibitory Concentrations S. pneumoniae DAW27. The procedure, abridged: as §1
Series [3] relates to Bacillus subtilis, ATCC 23857. The series is described as above. It counts as cell-based. Conditions: Bacillus subtilis, ATCC23857, read-out: Minimal Inhibitory Concentrations B. subtilis ATCC 23857. The gist of the method: as §1
Series [4] deals with Enterococcus faecalis, ATCC 33186. Described as above. Particulars: Enterococcus faecalis, ATCC33186, read-out: Minimal Inhibitory Concentrations E. faecalis ATCC 33186. In kind it is cell-based. The procedure, abridged: as §1
For series [5], the system named is Staphylococcus aureus, NRS70. Described as above. In kind it is cell-based. Conditions: Staphylococcus aureus, NRS70, read-out: Minimal Inhibitory Concentrations S. aureus NRS70. The gist of the method: as §1
The subject of series [6] is Vero (kidney epithelial cells; ATCC CCL-81). The series is described as follows: Cytotoxicity assay (CellTiter-Glo cell viability, 72 hours). It counts as cell-based. Conditions: Vero cells, 72 hours, growth inhibition; read-out: Cytotoxicity IC50. The gist of the method: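 Viability measured by CellTiter-Glo luminescence after 72-hour compound exposure (serial dilutions, DMSO control) of Vero monolayers seeded at 5000 cells/well in 10% FBS DMEM. IC50 values are the range of two biologically independent experiments, each run in duplicate.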
For orientation: ATP-based viability assays read luminescence as a measure of living cells.

A further series concerns E. coli K12ΔtolC. The series is described as follows: Minimal inhibitory concentration assay (microbroth dilution). It counts as cell-based. In general terms: Broth dilution looks for growth in wells or tubes with falling amounts of substance.
In series [7] the test system is Streptococcus pyogenes, ATCC 700294. The series is described as above. Particulars: Streptococcus pyogenes, ATCC700294, read-out: Minimal Inhibitory Concentrations S. pyogenes ATCC 700294. In kind it is cell-based. The gist of the method: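 Plates with two-fold compound dilution series in broth were incubated overnight, aerobically, at 37° C, following CLSI microdilution guidance.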

A further series is described as follows: physchem. Particulars: 22 °C, aqueous buffer, kinetic from dmso stock.

`C[C@@H]1C[C@H]2C(=O)OC[C@H](NC(=O)[C@H](Cc3ccccc3)NC(=O)Nc3cccc(Cl)c3)C(=O)N3CCC[C@H]3C(=O)N3CCCC[C@H]3C(=O)N[C@@H](C)C(=O)N2C1` [Compound 9, (S)-2-(3-(3-chlorophenyl)ureido)-N-((2R,6S,8aS,14aS,20S,23aS)-2,6-dimethyl-5,8,14,19,23-pentaoxooctadecahydro-1H,5H,14H,19H-pyrido[2,1-i]dipyrrolo[2,1-c:2′,1′-l][1]oxa[4,7,10,13]tetraazacyclohexadecin-20-yl)-3-phenylpropanamide]: the MIC was determined as 3.13 µM (≈ 2.44 µg/mL) in [1]; 0.78 µM (≈ 0.607 µg/mL) in series [2]; 1.56 µM (≈ 1.21 µg/mL) in series [3]; 1.56 µM (≈ 1.21 µg/mL) in series [4]; 1.56 µM (≈ 1.21 µg/mL) in series [5]; 1.56 µM (≈ 1.21 µg/mL) in series [7]. Moreover, in series [6], the IC50 was 89 ± 5 µM. Besides, the “Minimal Inhibitory Concentrations E. coli K12ΔtolC” value in the series on E. coli K12ΔtolC was determined as 25 µM.

Take `Cc1ccc(NC(=O)N[C@@H](Cc2cc(F)cc(F)c2)C(=O)N[C@@H]2C(=O)N3C[C@H](OP(=O)(O)O)C[C@H]3C(=O)N(C)[C@@H](C)C(=O)N[C@@H](C)C(=O)N3C[C@@H](C)C[C@H]3C(=O)O[C@H]2C)cc1` [Compound 187, (2S,6S,9S,11aS,13R,17S,18S,20aS)-17-((S)-3-(3,5-difluorophenyl)-2-(3-(p-tolyl)ureido)propanamido)-2,6,9,10,18-pentamethyl-5,8,11,16,20-pentaoxohexadecahydro-1H,5H,16H-dipyrrolo[2,1-c:2′,1′-l][1]oxa[4,7,10,13]tetraazacyclohexadecin-13-yl dihydrogen phosphate] ({NH(4-Me-phenyl)-CO}-[Phe(3,5-F2)][aThr][X15][NMeA]A[Pro(4S-Me)]; ester 2-C): the solubility in the series “physchem” was 118 ± 1.4 µM.

On to `Cc1ccc(NC(=O)N[C@@H](Cc2cc(F)cc(F)c2)C(=O)N[C@@H]2C(=O)N3C[C@H](OP(=O)(O)O)C[C@H]3C(=O)N3CCOC[C@H]3C(=O)N[C@@H](C)C(=O)N3C[C@H](C)C[C@H]3C(=O)O[C@H]2C)cc1C` [Compound 189, (6aS,8R,12S,13S,15aS,17R,21S,23aS)-12-((S)-3-(3,5-difluorophenyl)-2-(3-(3,4-dimethylphenyl)ureido)propanamido)-13,17,21-trimethyl-6,11,15,20,23-pentaoxooctadecahydro-6H,11H,15H-[1,4]oxazino[3,4-i]dipyrrolo[2,1-c:2′,1′-L][1]oxa[4,7,10,13]tetraazacyclohexadecin-8-yl dihydrogen phosphate] ({NH(3,4-Me2-phenyl)-CO}-[Phe(3,5-F2)][aThr][X15][Morpholine(3S-CO)]A[Pro(4R-Me)]; ester 2-C), for which the solubility in “physchem” came to 117 ± 3.2 µM.

In turn, `Cc1ccc(NC(=O)N[C@@H](Cc2cc(F)cc(F)c2)C(=O)N[C@@H]2C(=O)N3C[C@H](OP(=O)(O)O)C[C@H]3C(=O)N3CCCC[C@H]3C(=O)N[C@@H](C)C(=O)N3C[C@H](C)C[C@H]3C(=O)O[C@H]2C)cc1` [Compound 190, (2R,6S,8aS,14aS,16R,20S,21S,23aS)-20-((S)-3-(3,5-difluorophenyl)-2-(3-(p-tolyl)ureido)propanamido)-2,6,21-trimethyl-5,8,14,19,23-pentaoxooctadecahydro-1H,5H,14H,19H-pyrido[2,1-i]dipyrrolo[2,1-c:2′,1′-l][1]oxa[4,7,10,13]tetraazacyclohexadecin-16-yl dihydrogen phosphate] ({NH(4-Me-phenyl)-CO}-[Phe(3,5-F2)][aThr][X15][Pip]A[Pro(4R-Me)]; ester 2-C) showed a solubility in “physchem” of 113 ± 3.9 µM.
